Experimental data from ChEMBL document CHEMBL3576790, “Novel Small Molecule Inhibitors of Activated Thrombin Activatable Fibrinolysis Inhibitor (TAFIa) from Natural Product Anabaenopeptin” (J Med Chem, 2015).
Each block holds one compound with its values, some of them ahead of it. *1 amine or outer side, *2 acyl side, *3 side chain or, on linkers, in order; H or OH if unused. Where a SMILES comes first, the peptide text is derived from it. Bridges are numbered along the chain shown (N, C = ends). [ ]: non-standard residue; d: D form. hTyr = N[C@@H](CCc1ccc(O)cc1)C(=O)O; NMeA = CN[C@@H](C)C(=O)O; CO = O=C([*:1])[*:2]

What was measured:
Carboxypeptidase B2 = target: T1, Carboxypeptidase B2 (Homo sapiens, UniProt Q96IY4)
T1 sequence (Q96IY4 whole entry): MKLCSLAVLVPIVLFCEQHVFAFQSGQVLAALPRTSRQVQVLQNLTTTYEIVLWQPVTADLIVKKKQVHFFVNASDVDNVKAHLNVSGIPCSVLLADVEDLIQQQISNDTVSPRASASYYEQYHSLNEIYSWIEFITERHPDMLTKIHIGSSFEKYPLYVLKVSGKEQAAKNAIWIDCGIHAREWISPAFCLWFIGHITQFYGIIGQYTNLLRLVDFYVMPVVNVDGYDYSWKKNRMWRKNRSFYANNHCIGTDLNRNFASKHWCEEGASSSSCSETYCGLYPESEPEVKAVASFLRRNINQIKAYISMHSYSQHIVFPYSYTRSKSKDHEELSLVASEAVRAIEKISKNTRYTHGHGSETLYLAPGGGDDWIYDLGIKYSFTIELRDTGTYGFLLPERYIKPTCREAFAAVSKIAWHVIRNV
Description: Inhibition of human activated TAFI incubated for 15 mins by microtiter plate reader based assay

Coagulation factor VII = target: T2, Coagulation factor VII (Homo sapiens, UniProt P08709); experiment: Inhibition of factor7a (unknown origin)
T2 sequence (P08709 whole entry): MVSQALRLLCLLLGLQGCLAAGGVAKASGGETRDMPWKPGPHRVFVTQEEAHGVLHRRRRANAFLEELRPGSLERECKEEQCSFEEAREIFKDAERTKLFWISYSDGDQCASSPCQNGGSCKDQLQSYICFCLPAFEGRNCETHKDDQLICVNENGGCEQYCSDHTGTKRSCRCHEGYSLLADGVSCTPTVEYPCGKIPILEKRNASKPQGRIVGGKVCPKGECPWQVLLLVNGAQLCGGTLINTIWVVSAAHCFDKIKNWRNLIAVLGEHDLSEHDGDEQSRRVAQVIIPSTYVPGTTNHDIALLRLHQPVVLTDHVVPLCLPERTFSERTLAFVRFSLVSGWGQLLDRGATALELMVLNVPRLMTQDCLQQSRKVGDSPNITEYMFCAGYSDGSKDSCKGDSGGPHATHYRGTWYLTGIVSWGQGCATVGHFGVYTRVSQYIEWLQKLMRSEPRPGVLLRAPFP

Coagulation factor XI = Coagulation factor XI (Homo sapiens, UniProt P03951); experiment: Inhibition of factor11a (unknown origin)
Chain of Coagulation factor XI (P03951 19-387 limits assumed): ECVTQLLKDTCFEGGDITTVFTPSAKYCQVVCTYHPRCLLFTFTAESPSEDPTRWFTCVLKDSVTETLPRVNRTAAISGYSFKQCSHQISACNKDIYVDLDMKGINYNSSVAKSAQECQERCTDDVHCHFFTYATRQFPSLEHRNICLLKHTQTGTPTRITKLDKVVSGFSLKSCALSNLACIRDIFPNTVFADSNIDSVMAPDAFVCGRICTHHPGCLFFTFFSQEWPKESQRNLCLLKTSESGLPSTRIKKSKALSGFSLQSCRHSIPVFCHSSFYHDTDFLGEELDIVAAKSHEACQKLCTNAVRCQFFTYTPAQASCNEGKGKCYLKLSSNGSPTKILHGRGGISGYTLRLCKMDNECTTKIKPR
Chain of Coagulation factor XI (P03951 388-625 limits assumed): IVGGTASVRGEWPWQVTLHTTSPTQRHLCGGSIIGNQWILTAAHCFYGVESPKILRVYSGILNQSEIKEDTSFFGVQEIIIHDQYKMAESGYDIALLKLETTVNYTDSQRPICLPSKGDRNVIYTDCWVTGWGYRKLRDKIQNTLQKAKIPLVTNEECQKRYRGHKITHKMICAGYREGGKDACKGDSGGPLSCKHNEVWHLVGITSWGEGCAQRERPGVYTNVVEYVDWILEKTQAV

Coagulation factor X = Coagulation factor X (Homo sapiens, UniProt P00742); experiment: Inhibition of factor10a (unknown origin)
Chain of Coagulation factor X (P00742 41-179 limits assumed): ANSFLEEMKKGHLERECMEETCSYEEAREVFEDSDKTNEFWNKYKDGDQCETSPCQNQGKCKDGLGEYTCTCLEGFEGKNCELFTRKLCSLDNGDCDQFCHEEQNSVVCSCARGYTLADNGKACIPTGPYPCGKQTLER
Chain of Coagulation factor X (P00742 235-488 limits assumed): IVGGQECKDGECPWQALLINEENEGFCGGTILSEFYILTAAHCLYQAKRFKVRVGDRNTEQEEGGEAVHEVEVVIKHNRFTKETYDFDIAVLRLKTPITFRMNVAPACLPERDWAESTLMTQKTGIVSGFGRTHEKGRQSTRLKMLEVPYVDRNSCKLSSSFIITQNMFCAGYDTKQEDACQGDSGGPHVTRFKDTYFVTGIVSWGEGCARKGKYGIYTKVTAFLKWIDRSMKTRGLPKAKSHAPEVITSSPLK

Prothrombin = Prothrombin (Homo sapiens, UniProt P00734); experiment: Inhibition of factor2a (unknown origin)
[1] = target: T3, Carboxypeptidase N catalytic chain (Homo sapiens, UniProt P15169); experiment: Inhibition of CPN (unknown origin)
T3 sequence (P15169 whole entry): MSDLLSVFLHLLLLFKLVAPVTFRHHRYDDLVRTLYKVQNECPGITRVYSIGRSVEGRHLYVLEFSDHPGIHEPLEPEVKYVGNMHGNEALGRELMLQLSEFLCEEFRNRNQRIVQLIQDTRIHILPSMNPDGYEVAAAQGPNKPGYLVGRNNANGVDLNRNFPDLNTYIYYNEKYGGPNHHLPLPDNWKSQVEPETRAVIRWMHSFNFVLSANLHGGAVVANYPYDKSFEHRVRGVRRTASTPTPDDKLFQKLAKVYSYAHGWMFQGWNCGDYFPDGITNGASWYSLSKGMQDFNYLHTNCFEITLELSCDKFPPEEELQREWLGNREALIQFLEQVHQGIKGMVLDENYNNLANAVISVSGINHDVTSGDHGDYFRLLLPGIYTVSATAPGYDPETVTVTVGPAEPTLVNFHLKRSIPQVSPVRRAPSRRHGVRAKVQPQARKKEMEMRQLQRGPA

Carboxypeptidase A1 = target: T4, Carboxypeptidase A1 (Homo sapiens, UniProt P15085); experiment: Inhibition of CPA (unknown origin)
T4 sequence (P15085 whole entry): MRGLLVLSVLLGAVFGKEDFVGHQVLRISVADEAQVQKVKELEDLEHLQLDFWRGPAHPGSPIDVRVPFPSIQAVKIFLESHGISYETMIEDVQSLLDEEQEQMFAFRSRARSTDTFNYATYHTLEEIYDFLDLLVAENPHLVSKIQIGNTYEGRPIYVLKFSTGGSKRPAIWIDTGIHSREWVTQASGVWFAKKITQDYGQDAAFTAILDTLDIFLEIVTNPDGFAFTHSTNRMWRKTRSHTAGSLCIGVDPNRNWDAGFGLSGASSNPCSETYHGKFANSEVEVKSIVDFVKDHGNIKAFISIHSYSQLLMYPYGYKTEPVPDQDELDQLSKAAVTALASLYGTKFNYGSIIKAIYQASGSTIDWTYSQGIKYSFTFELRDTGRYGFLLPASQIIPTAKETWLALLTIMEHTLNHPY

- IC50 (Carboxypeptidase B2): 0.057 µM
SMILES: CC(C)C[C@@H](NC(=O)N[C@@H](CCCCN)C(=O)O)C(=O)NC1CC2(C)CCC1C2(C)C (single isomer, unassigned; (+))

- IC50 (Carboxypeptidase B2): 6.1 µM
SMILES: CC(C)(NC(=O)N[C@@H](CCCCN)C(=O)O)C(=O)NC1CC2(C)CCC1C2(C)C (stereo partly specified)

- IC50 (Carboxypeptidase B2): 0.57 µM
SMILES: CC12CCC(C(NC(=O)[C@@H](CC3CCCCC3)NC(=O)N[C@@H](Cc3ccc(N)nc3)C(N)=O)C1)C2(C)C (stereo partly specified)

- IC50 (Carboxypeptidase B2): 0.015 µM
SMILES: CC12CCC(C(NC(=O)[C@@H](Cc3ccccc3)NC(=O)N[C@@H](CCCCN)C(=O)O)C1)C2(C)C (single isomer, unassigned; (+))

- IC50 (Carboxypeptidase B2): 0.038 µM
SMILES: CC12CCC(C(NC(=O)[C@@H](CC3CCCCC3)NC(=O)N[C@@H](CS(=O)(=O)CCN)C(=O)O)C1)C2(C)C (stereo partly specified)

SMILES: CC(C)[C@@H]1NC(=O)[C@H](NC(=O)N[C@@H](CCCNC(=N)N)C(=O)O)CCCCNC(=O)[C@H](Cc2ccccc2)NC(=O)[C@H](C)N(C)C(=O)[C@H](CCc2ccc(O)cc2)NC1=O [ANABAENOPEPTIN B] ({Arg-CO}-[dK]V[hTyr][NMeA]F; lactam 1-C)
- IC50 (Coagulation factor VII): > 100 µM
- IC50 (Coagulation factor XI): 24 µM
- IC50 (Coagulation factor X): > 100 µM
- IC50 (Prothrombin): 1.6 µM

- IC50 (Carboxypeptidase B2): 0.015 µM
SMILES: CCC[C@@H](NC(=O)N[C@@H](CCCCN)C(=O)O)C(=O)NC1CC2(C)CCC1C2(C)C (stereo partly specified)

- IC50 (Carboxypeptidase B2): 1.4 µM
SMILES: CC(C)CCNC(=O)[C@@H](CCCCNC(=O)OCc1ccccc1)NC(=O)N[C@@H](CCCCN)C(=O)O

- IC50 (Carboxypeptidase B2): 0.12 µM
SMILES: NCCCC[C@H](NC(=O)N[C@H](CC1CCCCC1)C(=O)NCC(c1ccccc1)c1ccccc1)C(=O)O

- IC50 (Carboxypeptidase B2): 54 µM
SMILES: CC12CCC(C(NC(=O)[C@@H](CC3CCCCC3)NC(=O)N[C@H](C#N)Cc3ccc(N)nc3)C1)C2(C)C (stereo partly specified)

SMILES: CC(C)[C@@H]1NC(=O)[C@H](NC(=O)N[C@@H](CCCCN)C(=O)O)CCCCNC(=O)[C@H](Cc2ccccc2)NC(=O)[C@H](C)N(C)C(=O)[C@H](CCc2ccc(O)cc2)NC1=O
- IC50 [1]: 5.7 µM
- IC50 (Coagulation factor VII): > 100 µM
- IC50 (Coagulation factor XI): 12 µM
- IC50 (Coagulation factor X): > 100 µM
- IC50 (Carboxypeptidase A1): > 100 µM
- IC50 (Prothrombin): 6 µM

SMILES: CC[C@H](C)[C@@H]1NC(=O)[C@H](NC(=O)N[C@@H](CCCNC(=N)N)C(=O)O)CCCCNC(=O)[C@H](Cc2ccccc2)NC(=O)[C@H](C)N(C)C(=O)[C@H](CCc2ccc(O)cc2)NC1=O [ANABAENOPEPTIN F] ({Arg-CO}-[dK]I[hTyr][NMeA]F; lactam 1-C)
- IC50 (Coagulation factor VII): 35 µM
- IC50 (Coagulation factor XI): 3.9 µM
- IC50 (Coagulation factor X): 38 µM
- IC50 (Prothrombin): 0.35 µM

- IC50 (Carboxypeptidase B2): 0.001 µM
SMILES: CC12CCC(C(NC(=O)[C@@H](CC3CCCCC3)NC(=O)N[C@@H](Cc3ccc(N)nc3)C(=O)O)C1)C2(C)C (stereo partly specified)

- IC50 (Carboxypeptidase B2): 1 µM
SMILES: CC12CCC(C(NC(=O)[C@H](NC(=O)N[C@@H](CCCCN)C(=O)O)C3CCCCC3)C1)C2(C)C (stereo partly specified)

- IC50 (Carboxypeptidase B2): 0.25 µM
SMILES: CC12CCC(C(NC(=O)[C@@H](CC3CCCCC3)NC(=O)N[C@H](Cc3ccc(N)nc3)C(=O)O)C1)C2(C)C (stereo partly specified)
